Non-standard residues stand in square brackets, D forms with d. Residues, ends and D or L forms follow the SMILES beside them. pGlu = O=C1CC[C@@H](C(=O)O)N1

As to `CC(=O)OCc1ccc(C=O)cc1`, the melting point turned out to be 32 °C.

In turn, `Cc1cc(N2N=CCNC2=O)cc(Cl)c1C(C#N)c1cnc(Cl)s1` (stereo not drawn) yielded a melting point of 238 to 239 °C.

Turning to `CCCCc1ncc(C(=O)OCC)c(=O)n1Cc1ccc(-c2ccccc2-c2nc(=O)o[nH]2)cc1`, the melting point was in the range of 151 to 154 °C.

`CC1(C)CN(CC2Cc3ccccc3O2)c2nc(-c3ccncc3)cc(=O)n2C1` (racemic): the melting point lay in the range of 147 to 149 °C.

On to `O=C(O)c1ccc2c(c1)S(=O)(=O)c1ccc(Cl)cc1C2=O`, for which the melting point lay within 352 to 355 °C.

`CC(C)(C)NS(=O)(=O)c1c(Cl)cccc1-c1ccccc1` came in with a melting point of 168 to 170 °C.

`Cc1cc(C)c(S(=O)(=O)OS(=O)(=O)c2c(C)cc(C)cc2C)c(C)c1`: the melting point was in the range of 194 to 198 °C.

As to `CN(C)C1CN(c2c(F)cc3c(=O)c(C(=O)O)cn(C4CC4)c3c2F)C1`, the melting point lay in the range of 256 to 260 °C.

`Cc1nc(-c2cn(CCc3ccc(F)cc3)nn2)sc1C(=O)NCc1ccccc1`: the melting point was 181 to 182 °C.

Compound `COC(=O)CCc1ccc(C(=O)O)cc1[N+](=O)[O-]` gave a melting point of 120 to 122 °C.

On to `CCC(C)c1ccc(-n2c(-c3cc(C)c(OCCO)c(C)c3)nc3cc(S(C)(=O)=O)ccc3c2=O)cc1` (stereo not drawn), for which the melting point lay within 235 to 237 °C.

For the compound `CCOC(=O)CC(=O)c1cc(F)c(F)c(Br)c1Cl`, the melting point lay in the range of 47 to 51 °C.

In the case of `CC(C)C1C(=O)Nc2ccc(OCC3CO3)cc21` (stereo not drawn), the melting point lay within 122 to 125 °C.

As to `Cn1nc(N)nc1NCCCOc1cccc(CNC2CCCCC2)c1`, the melting point fell in the range of 102 to 103 °C.

`Ic1ncnc2c1ncn2Cc1ccccc1` gave a melting point of 152 to 153 °C.

Take `CC(=O)c1ccc(NC(=O)Nc2ccc(S(N)(=O)=O)cc2)cc1`: the melting point is 258 to 260 °C.

For `CC1(C)Oc2cc(Br)sc2C(N2CCCC2=O)C1O` (stereo not drawn), the melting point was 162 to 165 °C.

`CCOC(=O)c1ncc2[nH]c3cccc(Oc4ccc([N+](=O)[O-])cc4)c3c2c1COC`: the melting point is 231 to 232 °C.

With `CCc1ccc(Nc2nnc(Cc3ccnc(OC)c3)c3ccccc23)cc1Br`, the melting point lay in the range of 133 to 135 °C.

On to `COc1csc(C=CC(=O)c2ccccc2)c1`, for which the melting point was found to be 104 °C.

For `CC[C@H](C)C(OCc1ccccc1F)[C@H]1[C@H]([N+](=O)[O-])[C@H](c2ccsc2)N[C@@H]1C(=O)NCCC(=O)O` (stereo partly drawn), the melting point fell in the range of 113 to 114 °C.

`NC(=O)NC1CCN(Cc2ccccc2)CC1` showed a melting point of 140 °C.

As to `N#CC(=Cc1cc(O)c(O)c([N+](=O)[O-])c1)C(N)=O`, the melting point was 296 to 298 °C.

`Cc1cc(=O)n(-c2ccc(C(F)(F)F)cc2)[nH]1` showed a melting point of 130 °C.

Turning to `COC(=O)[C@H](CS)NC(=O)[C@@H]1CCC(=O)N1` ([pGlu]-Cys-OMe), the melting point fell in the range of 114 to 116 °C.

`CCOC(=N)C1(O)CCCc2ccccc21` (stereo not drawn): the melting point lay within 84 to 86 °C.

In turn, `COc1cc(CN2CCN(c3ccc(C(=O)NC4CC4)cc3C)CC2)cc2c1OCC(=O)N2` registered a melting point of 220 to 228 °C.

In turn, `CN(C(CCn1c(=O)[nH]c2ccsc2c1=O)C(=O)O)S(=O)(=O)c1ccc(Oc2ccccc2)cc1` (stereo not drawn) came in with a melting point of 218 to 219 °C.

In the case of `CNC(=O)CNC(=O)c1ccc(C)c(-n2c(C)cc(OCc3ccccc3CNC(=O)Nc3cc(C(C)(C)C)nn3-c3ccc(Cl)c(O)c3)c(Cl)c2=O)c1`, the melting point was in the range of 179 to 181 °C.

In turn, `COc1cc2c(cc1OCc1ccccc1)CC(C)(C)N(C(=O)c1cc(OC)c(OC)c(OC)c1)C2C` (stereo not drawn) came in with a melting point of 175 to 177 °C.

`COc1c(C=O)c(=O)n(C)c(=O)n1C` gave a melting point of 105 to 107 °C.

Turning to `Cn1c(COc2ccc(CC3SC(=O)NC3=O)cc2)nc2ccccc21` (stereo not drawn), the melting point is 230 to 231 °C.

Compound `COc1cc(OC)nc(NC(=O)NS(=O)(=O)c2ccccc2-c2ccno2)n1` returned a melting point of 183 to 187 °C.

On to `OCc1ccc2nc3c(cc2c1)-c1cccc2cccc-3c12`, for which the melting point lay within 215 to 218 °C.

With `Cc1c(C(=O)Nc2ccc(N3CCC(N4CCOCC4)CC3)c(C#N)c2)cnn1-c1cccc(Cl)c1`, the melting point turned out to be 210 °C.

`Cc1cccc(-c2[nH]c(C(C)C)nc2-c2cccc(-c3ccc4c(c3)CCCS4)c2)n1` registered a melting point of 115 to 117 °C.

Turning to `COc1cc(C2CCC(c3cc(OC)c(OC)c(OC)c3)O2)cc(OC)c1OC` (stereo not drawn), the melting point was 128 to 130 °C.

For the compound `O=C(O)CCc1cc(OCCCc2cn(-c3ccc(C(F)(F)F)cn3)nc2OCc2ccccc2)nn1-c1ccccc1`, the melting point lay within 159 to 161 °C.

The compound `COC(=O)Cc1ccc(Oc2ccc(S(C)(=O)=O)cc2)cc1` returned a melting point of 93 to 98 °C.

On to `CC(CNc1ccc(C(=O)O)cc1)Oc1ccc(Cl)c2ccccc12` (stereo not drawn), for which the melting point is 165 to 168 °C.

In the case of `CNC(=O)c1[nH]c(=O)[nH]c1C`, the melting point is greater than 300 °C.

In turn, `Cc1cc(Oc2cccc(C(F)(F)F)c2)nc(C(=O)O)c1` returned a melting point of 75 to 77 °C.

As to `CCCc1cccc(N2CC(=O)N(C)C(=O)N2)c1`, the melting point is 112 to 115 °C.

`c1ccc(C2CN3CCN=C3S2)cc1` (stereo not drawn): the melting point lay in the range of 68 to 70 °C.

`N#Cc1ccc(-c2ccc(-c3ccc(C#N)nc3)o2)cc1` yielded a melting point of 276 to 277 °C.

Consider `Cc1c(OCC(C)(C)CS(N)(=O)=O)nn2ccnc2c1C`, for which the melting point was in the range of 222 to 225 °C.

`CS(=O)(=O)N1CCN([C@@H](CNC(=O)c2ccc(OCc3ccncc3)cc2)C(=O)NO)CC1` returned a melting point of 213 °C.

In turn, `Cn1ccnc1N1CCN(CC(=O)c2ccc(NS(C)(=O)=O)cc2)CC1` had a melting point of 164 to 165 °C.

Compound `CC(C)N(C1CCCC1)S(=O)(=O)N[C@@H](Cc1ccc(NC(=O)c2c(Cl)cncc2Cl)cc1)C(=O)O` had a melting point of 157 °C.

For the compound `CCC(CC)N(O)C(=O)Nc1ccc(C)c(NC(=O)N(O)C(CC)CC)c1`, the melting point lay in the range of 175 to 177 °C.

Compound `COc1cc(C(=O)NNC(=O)c2occ(-c3ccccc3)c2-c2ccccc2)ccc1O` had a melting point of 216 to 220 °C.

Regarding `CN1C(=O)c2c(c3c4ccccc4[nH]c3c3[nH]c4ccccc4c23)C1=O`, the melting point is greater than 350 °C.

As for `CC1(C)Cc2nc(C3CC3)c(Cc3ccc(C(F)(F)F)cc3)c(-c3ccc(F)c(F)c3)c2C(O)C1` (stereo not drawn), the melting point lay within 126 to 127 °C.

`CSCCC1=NS(=O)(=O)NC(N)=N1` had a melting point of 243 to 246 °C.

For `CN(C(=O)OCc1ccccc1)[C@H]1CNc2ccccc2C1`, the melting point stood at 80 °C.

The compound `CC(C)(C)OC(=O)N1CCN(c2nccc(Oc3ccc(NC(=O)c4cc(F)cc(N5CCOCC5)c4)c4ccccc34)n2)CC1` showed a melting point of 131 to 133 °C.

`O=C(c1ccc(F)cc1)C1CCN(S(=O)(=O)c2ccccc2)CC1` displayed a melting point of 106 to 109 °C.

`COC1OCC[C@@H]1NC(=O)[C@H](Cc1ccccc1)NC(=O)CNC(=O)COc1ccc2c(c1)Nc1ccccc1S2` (stereo partly drawn) returned a melting point of 203 to 204 °C.

The compound `CCCCN(Cc1ccc(-c2ccccc2-c2nnn[nH]2)cc1)c1nc(C)ccc1C(=O)O` came in with a melting point of 175 to 177 °C.

As to `CC(C(=O)NO)S(=O)Cc1ccc(Cl)cc1` (stereo not drawn), the melting point lay within 132 to 133 °C.

`Cn1ncc2c1-c1c(Sc3ccccc3)sc(C(=O)O)c1CC2` had a melting point of 205 to 206 °C.

On to `CCOC(=O)COc1ccc2c(C)c(CCN(CC)CC)c(=O)oc2c1Br`, for which the melting point lay in the range of 150 to 151 °C.

The compound `CCc1noc(-c2cc3c(cn2)[nH]c2ccc(S(=O)(=O)N(C)C)cc23)n1` yielded a melting point of 266 to 268 °C.

`COC(=O)c1cccc(-c2nc(CO)cs2)c1` displayed a melting point of 115 to 117 °C.

Consider `CCOC(=O)c1cn(CC)c2nc(C)ccc2c1=O`, for which the melting point lay in the range of 122 to 123 °C.

`CCCCN(C)C(=O)CS(=O)CCCCCOc1ccc(C2=C(c3ccccc3)CCCc3ccccc32)cc1` (stereo not drawn) yielded a melting point of 120 to 121 °C.

Consider `CC(C)[C@](O)(CCc1ccc(O)cc1)CC(=O)O`, for which the melting point lay in the range of 137 to 140 °C.

Turning to `Clc1cccc(Cn2cnc3c(-c4ccco4)nc(Cl)nc32)c1`, the melting point was 196 to 198 °C.

For `CN(C)c1ccc(NC(=O)CCC2(c3ccc(Cl)cc3)Nc3cccnc3N2)cc1` (stereo not drawn), the melting point was 216 to 218 °C.

In turn, `c1ccc(-c2nc(COc3ccc(CCCCn4ccnc4)cc3)cs2)cc1` showed a melting point of 93 to 94 °C.

The compound `C=CCN1C(=O)C(C)N(c2ccc(Oc3ccccc3)cc2)C1=S` (stereo not drawn) yielded a melting point of 77 °C.

With `O=C1CSCC(=O)NCCOCCN1`, the melting point lay within 186 to 188 °C.

`O=C1NCC(CCc2ccccc2)O1` (stereo not drawn) had a melting point of 82 to 83 °C.

Turning to `CC(C)(C)c1cc(NC=O)n[nH]1`, the melting point was in the range of 204 to 206 °C.

In turn, `Cc1noc(NS(=O)(=O)c2ccccc2-c2ccc(-c3ccno3)cc2)c1C` had a melting point of 85 to 90 °C.

Take `COc1ccc2ccc(N3C(=O)c4ccccc4C3CC(=O)CCc3ccccc3)nc2n1` (stereo not drawn): the melting point worked out at 180 °C.

As for `CS(=O)(=O)Nc1cccc(Nc2nc(N3CCCC3)c3nc[nH]c3n2)c1`, the melting point fell in the range of 164 to 168 °C.

Take `Cc1nn(-c2ccccn2)c2nc3ccccc3cc12`: the melting point fell in the range of 153 to 154 °C.

`O=c1[nH]c(=O)n(C2CC(F)C(COC(c3ccccc3)(c3ccccc3)c3ccccc3)O2)cc1C(I)=CI` (stereo not drawn) gave a melting point of 58 °C.

The compound `C=COCCN1C(=O)CN(c2ccccc2)C1=O` gave a melting point of 119 to 120 °C.

`NC(=O)c1c(Cl)cn2c1CN(S(=O)(=O)c1ccc(-c3ccccn3)s1)CC2` returned a melting point of 213 to 214 °C.

`Cc1nc(NC(=O)c2cc[nH]c(=O)c2)sc1C(=O)NCc1ccccc1` showed a melting point of 290 to 292 °C.

As for `CCCCn1cnc2c(OC)nc(Nc3ccc(OCC)nc3)nc21`, the melting point was 174 to 176 °C.

Consider `CCOC(=O)Cc1cccc(NC=O)n1`, for which the melting point lay in the range of 35 to 38 °C.

`CC(O)(Cc1ccc(C#N)cc1)Cc1ccc(C#N)cc1` came in with a melting point of 147 to 148 °C.

`COc1ccc(Cl)cc1C(=O)NCCc1ccc(C(C)CC(=O)O)cc1` (stereo not drawn) displayed a melting point of 125 to 127 °C.

The compound `Cn1c(=O)[nH]c(=O)c2c1ncn2Cc1noc(C2CCCCC2)n1` had a melting point of 245 to 248 °C.

`CC(C)Cc1ccc(CCc2cc3c(s2)NC(=S)CN=C3c2ccccc2Cl)cc1` displayed a melting point of 180 to 182 °C.

Broadly, the melting point is the temperature of the solid-liquid transition.
